Values after ≈ are worked out from the molar mass of the structure shown.
Legend:
[1] = test system: influenza B/Victoria/102/85; test: microbe, parasite or virus in culture; format: cell-based; conditions: for IC50: Influenza B virus, MDCK, 72 h, read-out: I50 Plaque Assay Flu B
[2] = test system: influenza A/Singapore/1/57 (H2N2); test: microbe, parasite or virus in culture; format: cell-based; conditions: for I50 Plaque Assay Flu A: reduction of viral plaque formation in MDCK cells, 3 days at 37°C; for IC50: Influenza A virus, H2N2, MDCK, 72 h, read-out: I50 Plaque Assay Flu A
[3] = molecular target: N2 influenza neuraminidase (Influenza A virus, UniProt Q91MA2); test: biochemical; format: biochemical, influenza virus (virion X31); conditions: for NA1: pH 6.5
Chain of N2 influenza neuraminidase (Q91MA2 whole entry, looked up): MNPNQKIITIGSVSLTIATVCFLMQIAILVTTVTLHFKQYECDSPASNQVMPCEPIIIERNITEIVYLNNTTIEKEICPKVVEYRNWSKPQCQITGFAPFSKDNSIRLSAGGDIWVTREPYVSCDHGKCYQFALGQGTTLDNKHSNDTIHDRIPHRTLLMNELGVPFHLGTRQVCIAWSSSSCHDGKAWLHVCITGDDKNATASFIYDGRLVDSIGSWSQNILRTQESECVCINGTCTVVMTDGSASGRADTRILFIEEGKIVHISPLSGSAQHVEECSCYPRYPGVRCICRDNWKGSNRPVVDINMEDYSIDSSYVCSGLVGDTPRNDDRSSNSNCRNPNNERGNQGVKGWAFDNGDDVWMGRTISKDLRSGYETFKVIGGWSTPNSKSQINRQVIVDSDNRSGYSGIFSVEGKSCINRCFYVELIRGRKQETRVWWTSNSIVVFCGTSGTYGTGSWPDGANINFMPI

Molecule	I50 Plaque Assay Flu B [1] [µg/mL]	I50 Plaque Assay Flu A [2] [µg/mL]	NA1 [3] [µg/mL]	IC50 [1] [µg/mL]	IC50 [2] [µg/mL]	IC50 [3] [µM]
5-(Acetylamino)-4-[[amino(hydroxyimino)methyl]amino]-2,6-anhydro-3,4,5-trideoxy-D-glycero-D-galacto-non-2-enonic acid [Example 2]	<0.1	0.1	0.6			
CC(=O)N[C@H]1[C@H]([C@H](O)[C@H](O)CO)OC(C(=O)O)=C[C@@H]1NC(=N)N[N+](=O)[O-] [Example 4, 5-(Acetylamino)-4-[[amino(nitroimino)methyl]amino]-2,6-anhydro-3,4,5-trideoxy-D-glycero-D-galacto-non-2-enonic acid]				24 (≈ 63.6 µM)	30 (≈ 79.5 µM)	2.65
CNC(=N)N[C@H]1C=C(C(=O)O)O[C@@H]([C@H](O)[C@H](O)CO)[C@@H]1NC(C)=O [Example 3, 5-(Acetylamino)-4-[[amino(methylimino)methyl]amino]-2,6-anhydro-3,4,5-trideoxy-D-glycero-D-galacto-non-2-enonic acid]					3 (≈ 8.66 µM)	12.1
5-(Acetylamino)-4-[[amino(aminoimino)methyl]amino]-2,6-anhydro-3,4,5-trideoxy-D-glycero-D-galacto-non-2-enonic acid [Example 1]	3.0	2.9	1.3			
CCOC(=O)NC(=N)N[C@H]1C=C(C(=O)O)O[C@@H]([C@H](O)[C@H](O)CO)[C@@H]1NC(C)=O [Example 5, 5-(Acetylamino)-4-[[amino(ethoxycarbonylimino)methyl]amino]-2,6-anhydro-3,4,5-trideoxy-D-glycero-D-galacto-non-2-enonic acid]				0.6 (≈ 1.48 µM)	1.7 (≈ 4.2 µM)	17.1
